Patent US8192962B2, “Processes for detecting toxic substances” (Daikin Industries, Ltd., priority 2001, dated 2012)

System: Metabolism protein genes
Assay: DNA chip mRNA expression in yeast, metabolism protein genes (Table 7)
Format: cell-based, Saccharomyces cerevisiae S288C
Procedure: Yeast (Saccharomyces cerevisiae S288C (α SUC2mal mel gap2 CUP1)) were incubated at 25° C. on YPD medium (yeast extract 1%, polypepton 2%, glucose 2%). One of toxic chemical substances was added to the cells at logarithmic growth phase, and the cells were further incubated for two hours. Cells were cultured without any chemical substance in the same condition, and were used as control. Concentrations of the chemical substances were defined to inhibit the growth of the yeast but not lead to death.
After completion of the incubation, the culture was centrifuged to collect the cells. To the cells, sodium acetate buffer (50 mM sodium acetate, 10 mM EDTA, 1% SDS) was added, and the mixture was shaken at 65° C. for five minutes, followed by returning to room temperature, and obtaining the supernatant, of which the procedures were repeated two times. To the supernatant, ½ amount of a solution of phenol/chloroform was added, and the mixture was centrifuged to give a supernatant, which was added with an equal amount of chloroform, and the mixture was centrifuged to give a supernatant. To the supernatant, an equal amount of isopropanol containing 0.3 M sodium acetate was added, and the mixture was allowed to stand at room temperature for 30 minutes, after which the mixture was centrifuged to give a sediment of the whole RNAs. Seventy % ethanol was added to the sediment, and the mixture was again centrifuged to give a sediment, which was then dried and dissolved in water. mRNA was isolated from the whole RNAs as followings. In view of the fact that a poly A chain is attached to the 3′ terminus of mRNA, a polynucleotide having a poly T structure which was immobilized on the surface of latex beads was used to trap the mRNA, and then the mRNA was washed and eluted with spine column (Oligotex-dT30<Super>mRNA Purification Kit, Takara). Reverse transcription of the mRNA was conducted with a reverse transcriptase (Super Script II Reverse Transcriptase; catalogue No. 18064-014, GibcoBRL) using fluorescence-labeled nucleotides to give cDNAs that were introduced with Cy3-dUTP or Cy5-dUTP during the reverse transcription.
The labeled cDNAs were dissolved in TE buffer (10mM Tris-HCl/1 mM EDTA, pH8.0), and the solution was dropped on the DNA chip containing the whole genes of yeast (DNA Chip Research Inc. Japan) so that the cDNAs were hybridized on the DNA chip at 65° C. for over 12 hours. The fluoresces intensity of the DNA chip was read with a scanner, and the ratio relative to the fluorescence intensity resulting from the absence of chemical substance was estimated as the following, which is shown in Tables 1 to 9: […]

S=C([S-])NCCNC(=S)[S-].[Zn+2] [(11), zinc N,N′-ethylenebis(dithiocarbamate)]
The level of expressed mRNA in the presence of chemical substance/The level of expressed mRNA in the absence of chemical substance (yeast gene YJR155W): 15.4 | The level of expressed mRNA in the presence of chemical substance/The level of expressed mRNA in the absence of chemical substance (yeast gene YKL035W): 2.1 | level of expressed mRNA in the presence/in the absence of chemical substance (yeast gene YKL060C): 2.1 | The level of expressed mRNA in the presence of chemical substance/The level of expressed mRNA in the absence of chemical substance (yeast gene YKL091C): 1.7 | The level of expressed mRNA in the presence of chemical substance/The level of expressed mRNA in the absence of chemical substance (yeast gene YKL104C): 2.2 | level of expressed mRNA in the presence/in the absence of chemical substance (yeast gene YKL148C): 1.5 | The level of expressed mRNA in the presence of chemical substance/The level of expressed mRNA in the absence of chemical substance (yeast gene YKL152C): 1.7 | level of expressed mRNA in the presence/in the absence of chemical substance (yeast gene YKL157W): 1.5 | The level of expressed mRNA in the presence of chemical substance/The level of expressed mRNA in the absence of chemical substance (yeast gene YKL213C): 1.3 | The level of expressed mRNA in the presence of chemical substance/The level of expressed mRNA in the absence of chemical substance (yeast gene YKL215C): 0.5 | The level of expressed mRNA in the presence of chemical substance/The level of expressed mRNA in the absence of chemical substance (yeast gene YKR039W): 1.9 | The level of expressed mRNA in the presence of chemical substance/The level of expressed mRNA in the absence of chemical substance (yeast gene YLL058W): 2.0 | level of expressed mRNA in the presence/in the absence of chemical substance (yeast gene YLR006C): 1.5 | level of expressed mRNA in the presence/in the absence of chemical substance (yeast gene YLR044C): 1.1 | level of expressed mRNA in the presence/in the absence of chemical substance (yeast gene YLR056W): 0.8 | level of expressed mRNA in the presence/in the absence of chemical substance (yeast gene YLR058C): 2.6 | level of expressed mRNA in the presence/in the absence of chemical substance (yeast gene YLR081W): 2.6 | level of expressed mRNA in the presence/in the absence of chemical substance (yeast gene YLR089C): 1.7 | The level of expressed mRNA in the presence of chemical substance/The level of expressed mRNA in the absence of chemical substance (yeast gene YLR180W): 1.7 | The level of expressed mRNA in the presence of chemical substance/The level of expressed mRNA in the absence of chemical substance (yeast gene YLR273C): 1.4 | level of expressed mRNA in the presence/in the absence of chemical substance (yeast gene YLR284C): 1.5 | The level of expressed mRNA in the presence of chemical substance/The level of expressed mRNA in the absence of chemical substance (yeast gene YLR299W): 1.7 | The level of expressed mRNA in the presence of chemical substance/The level of expressed mRNA in the absence of chemical substance (yeast gene YLR300W): 1.0 | level of expressed mRNA in the presence/in the absence of chemical substance (yeast gene YLR304C): 1.6 | The level of expressed mRNA in the presence of chemical substance/The level of expressed mRNA in the absence of chemical substance (yeast gene YLR307W): 0.8 | The level of expressed mRNA in the presence of chemical substance/The level of expressed mRNA in the absence of chemical substance (yeast gene YLR348C): 1.3 | level of expressed mRNA in the presence/in the absence of chemical substance (yeast gene YLR354C): 1.7 | level of expressed mRNA in the presence/in the absence of chemical substance (yeast gene YLR372W): 0.9 | level of expressed mRNA in the presence/in the absence of chemical substance (yeast gene YML022W): 1.2 | The level of expressed mRNA in the presence of chemical substance/The level of expressed mRNA in the absence of chemical substance (yeast gene YML054C): 1.4 | The level of expressed mRNA in the presence of chemical substance/The level of expressed mRNA in the absence of chemical substance (yeast gene YML058W): 3.3 | The level of expressed mRNA in the presence of chemical substance/The level of expressed mRNA in the absence of chemical substance (yeast gene YML070W): 1.5 | The level of expressed mRNA in the presence of chemical substance/The level of expressed mRNA in the absence of chemical substance (yeast gene YML100W): 3.2 | The level of expressed mRNA in the presence of chemical substance/The level of expressed mRNA in the absence of chemical substance (yeast gene YMR008C): 1.3 | level of expressed mRNA in the presence/in the absence of chemical substance (yeast gene YMR011W): 1.5 | level of expressed mRNA in the presence/in the absence of chemical substance (yeast gene YMR015C): 1.0 | The level of expressed mRNA in the presence of chemical substance/The level of expressed mRNA in the absence of chemical substance (yeast gene YMR020W): 1.5 | level of expressed mRNA in the presence/in the absence of chemical substance (yeast gene YMR083W): 1.6 | The level of expressed mRNA in the presence of chemical substance/The level of expressed mRNA in the absence of chemical substance (yeast gene YMR105C): 3.0 | The level of expressed mRNA in the presence of chemical substance/The level of expressed mRNA in the absence of chemical substance (yeast gene YMR189W): 8.2 | level of expressed mRNA in the presence/in the absence of chemical substance (yeast gene YMR205C): 1.0 | level of expressed mRNA in the presence/in the absence of chemical substance (yeast gene YMR261C): 0.8 | The level of expressed mRNA in the presence of chemical substance/The level of expressed mRNA in the absence of chemical substance (yeast gene YMR271C): 1.7 | The level of expressed mRNA in the presence of chemical substance/The level of expressed mRNA in the absence of chemical substance (yeast gene YMR296C): 0.8 | level of expressed mRNA in the presence/in the absence of chemical substance (yeast gene YMR323W): 2.5 | The level of expressed mRNA in the presence of chemical substance/The level of expressed mRNA in the absence of chemical substance (yeast gene YNL012W): 1.6 | level of expressed mRNA in the presence/in the absence of chemical substance (yeast gene YNL025C): 1.1 | The level of expressed mRNA in the presence of chemical substance/The level of expressed mRNA in the absence of chemical substance (yeast gene YNL045W): 2.1 | The level of expressed mRNA in the presence of chemical substance/The level of expressed mRNA in the absence of chemical substance (yeast gene YNL104C): 2.1 | The level of expressed mRNA in the presence of chemical substance/The level of expressed mRNA in the absence of chemical substance (yeast gene YNL106C): 0.9 | The level of expressed mRNA in the presence of chemical substance/The level of expressed mRNA in the absence of chemical substance (yeast gene YNL169C): 0.8 | level of expressed mRNA in the presence/in the absence of chemical substance (yeast gene YNL192W): 1.1 | The level of expressed mRNA in the presence of chemical substance/The level of expressed mRNA in the absence of chemical substance (yeast gene YNL231C): 1.3 | The level of expressed mRNA in the presence of chemical substance/The level of expressed mRNA in the absence of chemical substance (yeast gene YNL322C): 0.6 | The level of expressed mRNA in the presence of chemical substance/The level of expressed mRNA in the absence of chemical substance (yeast gene YNL331C): 21.8 | The level of expressed mRNA in the presence of chemical substance/The level of expressed mRNA in the absence of chemical substance (yeast gene YNL332W): 2.6 | The level of expressed mRNA in the presence of chemical substance/The level of expressed mRNA in the absence of chemical substance (yeast gene YNR019W): 0.7 | The level of expressed mRNA in the presence of chemical substance/The level of expressed mRNA in the absence of chemical substance (yeast gene YNR033W): 0.4 | The level of expressed mRNA in the presence of chemical substance/The level of expressed mRNA in the absence of chemical substance (yeast gene YNR059W): 1.0 | The level of expressed mRNA in the presence of chemical substance/The level of expressed mRNA in the absence of chemical substance (yeast gene YOL058W): 2.3 | level of expressed mRNA in the presence/in the absence of chemical substance (yeast gene YOL086C): 2.6 | level of expressed mRNA in the presence/in the absence of chemical substance (yeast gene YOL108C): 1.1 | level of expressed mRNA in the presence/in the absence of chemical substance (yeast gene YOL116W): 1.0 | The level of expressed mRNA in the presence of chemical substance/The level of expressed mRNA in the absence of chemical substance (yeast gene YOL126C): 1.8 | The level of expressed mRNA in the presence of chemical substance/The level of expressed mRNA in the absence of chemical substance (yeast gene YOL153C): 2.4 | level of expressed mRNA in the presence/in the absence of chemical substance (yeast gene YOL156W): 1.1 | The level of expressed mRNA in the presence of chemical substance/The level of expressed mRNA in the absence of chemical substance (yeast gene YOL165C): 17.6 | level of expressed mRNA in the presence/in the absence of chemical substance (yeast gene YOR002W): 1.2 | level of expressed mRNA in the presence/in the absence of chemical substance (yeast gene YOR085W): 1.1 | The level of expressed mRNA in the presence of chemical substance/The level of expressed mRNA in the absence of chemical substance (yeast gene YOR099W): 1.2 | level of expressed mRNA in the presence/in the absence of chemical substance (yeast gene YOR103C): 1.0 | level of expressed mRNA in the presence/in the absence of chemical substance (yeast gene YOR108W): 1.4 | level of expressed mRNA in the presence/in the absence of chemical substance (yeast gene YOR128C): 0.8 | The level of expressed mRNA in the presence of chemical substance/The level of expressed mRNA in the absence of chemical substance (yeast gene YOR130C): 0.6 | level of expressed mRNA in the presence/in the absence of chemical substance (yeast gene YOR142W): 1.5 | level of expressed mRNA in the presence/in the absence of chemical substance (yeast gene YOR176W): 1.4 | level of expressed mRNA in the presence/in the absence of chemical substance (yeast gene YOR178C): 4.1 | level of expressed mRNA in the presence/in the absence of chemical substance (yeast gene YOR251C): 1.0 | The level of expressed mRNA in the presence of chemical substance/The level of expressed mRNA in the absence of chemical substance (yeast gene YOR336W): 1.4 | The level of expressed mRNA in the presence of chemical substance/The level of expressed mRNA in the absence of chemical substance (yeast gene YOR347C): 1.4 | level of expressed mRNA in the presence/in the absence of chemical substance (yeast gene YOR348C): 1.1 | The level of expressed mRNA in the presence of chemical substance/The level of expressed mRNA in the absence of chemical substance (yeast gene YPL017C): 0.4 | level of expressed mRNA in the presence/in the absence of chemical substance (yeast gene YPL028W): 1.2 | level of expressed mRNA in the presence/in the absence of chemical substance (yeast gene YPL057C): 1.6 | level of expressed mRNA in the presence/in the absence of chemical substance (yeast gene YPL135W): 1.3 | level of expressed mRNA in the presence/in the absence of chemical substance (yeast gene YPL148C): 3.5 | The level of expressed mRNA in the presence of chemical substance/The level of expressed mRNA in the absence of chemical substance (yeast gene YPR026W): 1.6 | level of expressed mRNA in the presence/in the absence of chemical substance (yeast gene YPR113W): 2.0 | The level of expressed mRNA in the presence of chemical substance/The level of expressed mRNA in the absence of chemical substance (yeast gene YPR160W): 4.4 | level of expressed mRNA in the presence/in the absence of chemical substance (yeast gene YPR165W): 1.0 | The level of expressed mRNA in the presence of chemical substance/The level of expressed mRNA in the absence of chemical substance (yeast gene YPR167C): 1.9 | level of expressed mRNA in the presence/in the absence of chemical substance (yeast gene YPR183W): 2.5 | The level of expressed mRNA in the presence of chemical substance/The level of expressed mRNA in the absence of chemical substance (yeast gene YPR184W): 3.6
